What was measured:
Assay type in all cases: cell-based, Lewis rats
[1] = tested on: primed lymph node cells (PLNC); experiment: T cell proliferation assay, PLNC from peptide-immunised rats; conditions: PLNC 10 days after immunisation with peptide 176-190 (100 µg/DDA); in vitro peptide 20 µg/ml
Protocol: (§1) Immunisations with synthetic peptides and primed lymph node populations: Rats were immunised with 50 µg of synthetic peptide in PBS/DDA in each hind footpad (i.e. 50 µg/footpad, 100 µg/rat). Ten days later, draining popliteal lymph nodes were removed, disaggregated, washed three times and used as a source of primed lymph node cells (PLNC). In some experiments, PLNC were derived as pooled inguinal and popliteal lymph nodes from AA rats 35-42 days post Mt immunisation.
(§2) T cell proliferation assays: PLNC were cultured in triplicate in 200 µl flat bottom microtitre wells (Costar) at 2 x 10^5 cells per well with or without antigen. In initial experiments PLNC were tested for responsiveness to individual peptides at concentrations of 5 and 20 µg/ml, and Mt, hsp65 and PPD over a range of concentrations. Concanavalin A (2 µg/ml) was used as a positive control for T cell proliferation. Cultures were incubated for 96 h at 37°C in a humidified atmosphere of 5% CO2. Cultures were pulsed for the final 16 h with [^3H] TdR (Amersham, U.K., 1 uCi/well) and TdR uptake measured using a liquid scintillation β counter. Assays using T cell lines were performed as above using 2 x 10^4 line cells per well with irradiated (30 Gy) syngeneic accessory cells (either 3 x 10^5 splenocytes/well or 10^6 thymocytes/well). Results are expressed as mean counts per minute (cpm) of triplicate cultures. In experiments where responses to Ag were low, responses were considered significant if the stimulation index (S.I. = […]) was greater than two and Student's t tests gave p < 0.01.
To determine whether immunisation of rats with synthetic peptides was effective at priming for T cell reactivity to hsp65 epitopes, in vitro proliferative responses following immunisation with 100 µg of peptide each containing individual T cell epitopes were examined. PLNC isolated ten days after immunisation were tested for response to the immunising peptide, overlapping peptides and to hsp65 (Table II). PLNC responses were observed after immunisation with seven of the nine peptides. Responses were not seen after immunisation with peptides 386-400 and 511-525.
T cell responses by immunisation with hsp65 peptides. Rats were immunised with synthetic peptides containing individual hsp65 epitopes (100 µg peptide/DDA per rat). Ten days later PLNC were isolated and tested for responses to overlapping peptides (20 µg/ml). Peptide-specific T cell lines were generated by bulk in vitro stimulation of PLNC with immunising peptide. Lines were tested for responses to overlapping peptides (10 µg/ml). […] Results are expressed as mean cpm of triplicate cultures. All SEM were less than 20%.

hsp65-PLNC = experiment: T cell proliferation assay, hsp65-PLNC; conditions: PLNC from hsp65-immunised rats; peptides 5 and 20 µg/ml
Protocol: (§3) Immunisations and primed lymph node populations: Rats were immunised with either Mt or hsp65. Mt was suspended at 5 mg/ml in IFA or DDA and 100 µl injected in each hind footpad (i.e. 500 µg/footpad, 1 mg/rat). Hsp65 (1 mg/ml in PBS) was mixed 1:1 with DDA and 100 µl injected (i.e. 50 µg/footpad, 100 µg/rat). Ten to 21 days later, draining popliteal lymph nodes were removed, disaggregated, washed three times and used as a source of primed lymph node cells (PLNC). In control experiments splenocytes and lymph nodes from unimmunised rats and PLNC from rats immunised with IFA or DDA/PBS alone were used.
as §2
Hsp65-PLNC were analysed for responsiveness to a panel of peptides covering the entire sequence of hsp65 (Fig. 3a). […] In terms of magnitude of response, three regions of the molecule (residues 176-190, 211-230 and 221-240) appeared to contain the "dominant" T cell epitopes, while regions 86-100. 251-270, 396-410 and 506-525 contained "subdominant" or minor epitopes.

[2] = tested on: hsp65-specific T cell line; experiment: T cell proliferation assay, hsp65-specific T cell line; conditions: short term lines from ten day hsp65-PLNC, seven days after first restimulation
Protocol: as §2
T cell lines: T cell lines with specificity for mycobacterial hsp65 or peptides were generated by bulk stimulation of either hsp65-PLNC or Mt-PLNC. PLNC were cultured at 5 x 10^6/ml in culture medium supplemented with 2% normal rat serum (NRS) in the presence of 10 µg/ml Ag. […]

Mt-PLNC = experiment: T cell proliferation assay, Mt-PLNC; conditions: PLNC from rats immunised with Mt mixed with DDA
Protocol: as §3
T cell proliferation assays: PLNC were cultured in triplicate in 200 µl flat bottom microtitre wells (Costar) at 2 x 10^5 cells per well with or without antigen. In initial experiments PLNC were tested for responsiveness to individual peptides at concentrations of 5 and 20 µg/ml, and Mt, hsp65 and PPD over a range of concentrations. Concanavalin A (2 µg/ml) was used as a positive control for T cell proliferation. Cultures were incubated for 96 h at 37°C in a humidified atmosphere of 5% CO2. Cultures were pulsed for the final 16 h with [^3H] TdR (Amersham, U.K., 1 uCi/well) and TdR uptake measured using a liquid scintillation β counter. […] Results are expressed as mean counts per minute (cpm) of triplicate cultures. […]

[3] = tested on: PLNC from preimmunised rats; experiment: T cell proliferation assay, PLNC of peptide-preimmunised AA rats 42 days after Mt; conditions: 42 days after Mt administration
Protocol: as §1, §2
PLNC from preimmunised rats were tested for responsiveness to hsp65 epitopes 42 days after Mt administration (Fig. 8). […] Responses to peptide 176-190 containing the AA-associated epitope were found in all PLNC populations (and enhanced after 176-190 preimmunisation) with one exception.

RT1.B^1 molecules = experiment: Inhibition of proliferation of T cell lines with other Ag specificities (MHC affinity, preliminary); conditions: preliminary experiments, data not shown
Protocol: The relatively low quantities of hsp65 present in the Mt preparation might result in focusing of T cell responses on hsp65 epitopes with higher affinities for MHC class II molecules. […] Thus, when Ag concentrations are limited (i.e. following Mt immunisation) dominance of T cell epitopes might be more dependent on their relative MHC binding affinities, whereas following immunisation with large quantities of specific antigen (50-100 µg hsp65 per rat) relative dominance might not be simply a function of affinity for MHC. Clearly, antigen processing of the intact hsp65 molecule will determine the peptide fragments generated during in vivo priming, and the naturally processed fragments will not be identical to the synthetic 15mers used in this study. Also the molecular context of hsp65 (i.e recombinant monomeric hsp65, or the multimeric native protein in the Mt preparation) could affect antigen processing and influence the pattern of epitope recognition.

peptide 176-190: synthetic 15mer of mycobacterial hsp65 containing the AA-associated epitope 180-188
CPM PLNC [1]: 57707 cpm | hsp65-PLNC proliferative response to peptide (hsp65-PLNC): dominant | hsp65-specific T cell line response to peptide [2]: strong responses | Mt/DDA-PLNC response to hsp65 peptide (Mt-PLNC): dominant | PLNC response to peptide, rats preimmunised with PBS/DDA alone [3]: significant responses | PLNC response to peptide, rats preimmunised with peptide 256-270 ([3]; rats protected from AA): total lack of response | affinity for RT1.B^1 molecules relative to peptides 211-225 or 226-240 (RT1.B^1 molecules): higher affinity
